Laboratory results published in patent publication US20260324639A1, “MICROBIOCIDAL PYRAZOLE DERIVATIVES” (SYNGENTA CROP PROTECTION AG, priority 2022, published 2026).

Columns and labels:
Monographella nivalis = Monographella nivalis (Microdochium nivale)/liquid culture (foot rot cereals); type: cell-based; conditions: liquid culture, PDB, 24° C., growth inhibition photometric 4-5 days after application, read-out: control of Monographella nivalis compared to untreated control
Method: (§1) Conidia of the fungus from cryogenic storage are directly mixed into nutrient broth (PDB potato dextrose broth). After placing a (DMSO) solution of test compound into a microtiter plate (96-well format), the nutrient broth containing the fungal spores is added. The test plates are incubated at 24° C. and the inhibition of growth is determined photometrically 4-5 days after application.

Mycosphaerella arachidis = Mycosphaerella arachidis (Cercospora arachidicola)/liquid culture (early leaf spot); type: cell-based; conditions: liquid culture, PDB, 24° C., growth inhibition photometric 4-5 days after application, read-out: control of Mycosphaerella arachidis compared to untreated control
Method: as §1

[1] = tested on: Mycosphaerella graminicola; assay: Mycosphaerella graminicola (Septoria tritici)/liquid culture (Septoria blotch); type: cell-based; conditions: Zymoseptoria tritici, liquid culture, PDB, 24° C., growth inhibition photometric 4-5 days after application, read-out: control of Mycosphaerella graminicola compared to untreated control
Method: as §1

Pyrenophora teres = assay: Pyrenophora teres/barley/leaf disc preventative (net blotch); type: in vivo; conditions: 200 ppm, barley leaf segments cv. Hasso, inoculated 2 days after application, assessed 5-7 days after application
Method: Barley leaf segments cv. Hasso are placed on agar in a multiwell plate (24-well format) and sprayed with the formulated test compound diluted in water. The leaf segments are inoculated with a spore suspension of the fungus 2 days after application. The inoculated leaf segments are incubated at 20° C. and 65% rh under a light regime of 12 h light/12 h darkness in a climate cabinet and the activity of a compound is assessed as disease control compared to untreated when an appropriate level of disease damage appears in untreated check leaf segments (5-7 days after application).

Glomerella lagenarium = Glomerella lagenarium (Colletotrichum lagenarium)/liquid culture (anthracnose); type: cell-based; conditions: Colletotrichum orbiculare, liquid culture, PDB, 24° C., growth inhibition photometric 3-4 days after application, read-out: control of Glomerella lagenarium compared to untreated control
Method: as §1, with “measured” for “determined”, “3-4” for “4-5”

Alternaria solani = assay: Alternaria solani/tomato/leaf disc (early blight); type: in vivo; conditions: 200 ppm; tomato leaf disks cv. Baby; inoculated 2 days after application; assessed 5-7 days after application
Method: Tomato leaf disks cv. Baby are placed on agar in multiwell plates (24-well format) and sprayed with the formulated test compound diluted in water. The leaf disks are inoculated with a spore suspension of the fungus 2 days after application. The inoculated leaf disks are incubated at 23° C./21° C. (day/night) and 80% rh under a light regime of 12/12 h (light/dark) in a climate cabinet and the activity of a compound is assessed as percent disease control compared to untreated when an appropriate level of disease damage appears on untreated check disk leaf disks (5-7 days after application).

Botryotinia fuckeliana = Botryotinia fuckeliana (Botrytis cinerea)/liquid culture (gray mould); type: cell-based; conditions: liquid culture, Vogels broth, 24° C., growth inhibition photometric 3-4 days after application, read-out: control of Botryotinia fuckeliana compared to untreated control
Method: as §1, with “(Vogels” for “(PDB potato dextrose”, “3-4” for “4-5”

Phaeosphaeria nodorum = Phaeosphaeria nodorum (Septoria nodorum)/wheat/leaf disc preventative (glume blotch); type: in vivo; conditions: 200 ppm, wheat leaf segments cv. Kanzler, inoculated 2 days after application, assessed 5-7 days after application
Method: Wheat leaf segments cv. Kanzler are placed on agar in a multiwell plate (24-well format) and sprayed with the formulated test compound diluted in water. The leaf disks are inoculated with a spore suspension of the fungus 2 days after application. The inoculated test leaf disks are incubated at 20° C. and 75% rh under a light regime of 12 h light/12 h darkness in a climate cabinet and the activity of a compound is assessed as percent disease control compared to untreated when an appropriate level of disease damage appears in untreated check leaf disks (5-7 days after application).

COc1ccc2c(c1)C(c1cnn(C)c1)CN(C(=O)c1nnn(-c3ccc(F)cc3F)n1)C2C (racemic) [Compound P-34, [2-(2,4-difluorophenyl)tetrazol-5-yl]-[6-methoxy-1-methyl-4-(1-methylpyrazol-4-yl)-3,4-dihydro-1H-isoquinolin-2-yl]methanone]
inhibition of growth at 20 ppm (Monographella nivalis): ≥ 80% | inhibition of growth at 20 ppm (Mycosphaerella arachidis): ≥ 80% | inhibition of growth at 20 ppm [1]: ≥ 80%

Cc1c([C@H]2CN(C(=O)c3cnn(-c4ccc(F)cc4F)n3)[C@@H](C)c3ccccc32)cnn1C (racemic) [Compound P-40, [2-(2,4-difluorophenyl)triazol-4-yl]-[rac-(1S,4S)-4-(1,5-dimethylpyrazol-4-yl)-1-methyl-3,4-dihydro-1H-isoquinolin-2-yl]methanone]
control of Pyrenophora teres compared to untreated control (Pyrenophora teres): at least 80% | inhibition of growth at 20 ppm [1]: ≥ 80%

COc1ccc2c(c1)[C@H](c1cnn(C)c1)CN(C(=O)c1nnn(-c3ccccc3)n1)[C@@H]2C (single isomer, unassigned) [Compound P-36]
inhibition of growth at 20 ppm (Monographella nivalis): ≥ 80% | inhibition of growth at 20 ppm (Mycosphaerella arachidis): ≥ 80% | inhibition of growth at 20 ppm [1]: ≥ 80%

COc1ccc2c(c1)[C@@H](c1cnn(C)c1)CN(C(=O)c1nnn(-c3ccc(F)cc3F)n1)[C@H]2C (single isomer, unassigned) [Compound P-38]
inhibition of growth at 20 ppm (Monographella nivalis): ≥ 80% | inhibition of growth at 20 ppm (Mycosphaerella arachidis): ≥ 80% | inhibition of growth at 20 ppm [1]: ≥ 80%

Cc1nn(C)c(C)c1C1CN(C(=O)c2cn(-c3ccccc3)nn2)Cc2ccccc21 (stereo not shown) [Compound P-7, (1-phenyltriazol-4-yl)-[4-(1,3,5-trimethylpyrazol-4-yl)-3,4-dihydro-1H-isoquinolin-2-yl]methanone]
inhibition of growth at 20 ppm (Mycosphaerella arachidis): ≥ 80% | inhibition of growth at 20 ppm [1]: ≥ 80%

Cn1cc(C2CN(C(=O)c3cn(-c4ccc(F)cc4F)nn3)Cc3ccccc32)cn1 (stereo not shown) [Compound P-8, [1-(2,4-difluorophenyl)triazol-4-yl]-[4-(1-methylpyrazol-4-yl)-3,4-dihydro-1H-isoquinolin-2-yl]methanone]
control of Pyrenophora teres compared to untreated control (Pyrenophora teres): at least 80%

Cn1cc(C2CN(C(=O)c3cn(-c4ccccc4)nn3)Cc3ccccc32)cn1 (stereo not shown) [Compound P-11, [4-(1-methylpyrazol-4-yl)-3,4-dihydro-1H-isoquinolin-2-yl]-(1-phenyltriazol-4-yl)methanone]
inhibition of growth at 20 ppm (Glomerella lagenarium): ≥ 80% | inhibition of growth at 20 ppm [1]: ≥ 80%

Cn1cc(C2CN(C(=O)c3nnn(-c4ccccc4)n3)Cc3ccccc32)cn1 (stereo not shown) [Compound P-14, [4-(1-methylpyrazol-4-yl)-3,4-dihydro-1H-isoquinolin-2-yl]-(2-phenyltetrazol-5-yl)methanone]
control of Alternaria solani compared to untreated control (Alternaria solani): at least 80% | inhibition of growth at 20 ppm (Botryotinia fuckeliana): ≥ 80% | inhibition of growth at 20 ppm (Glomerella lagenarium): ≥ 80% | control of Phaeosphaeria nodorum compared to untreated control (Phaeosphaeria nodorum): at least 80% | inhibition of growth at 20 ppm (Monographella nivalis): ≥ 80% | inhibition of growth at 20 ppm (Mycosphaerella arachidis): ≥ 80% | control of Pyrenophora teres compared to untreated control (Pyrenophora teres): at least 80% | inhibition of growth at 20 ppm [1]: ≥ 80%

Cn1cc(C2CN(C(=O)c3cnn(-c4ccc(F)cc4)n3)Cc3ccccc32)cn1 (stereo not shown) [Compound P-18, [2-(4-fluorophenyl)triazol-4-yl]-[4-(1-methylpyrazol-4-yl)-3,4-dihydro-1H-isoquinolin-2-yl]methanone]
inhibition of growth at 20 ppm (Monographella nivalis): ≥ 80% | inhibition of growth at 20 ppm [1]: ≥ 80%

Cc1c(C2CN(C(=O)c3nnn(-c4ccc(F)cc4F)n3)Cc3ccccc32)cnn1C (stereo not shown) [Compound P-31, [2-(2,4-difluorophenyl)tetrazol-5-yl]-[4-(1,5-dimethylpyrazol-4-yl)-3,4-dihydro-1H-isoquinolin-2-yl]methanone]
control of Alternaria solani compared to untreated control (Alternaria solani): at least 80% | inhibition of growth at 20 ppm (Botryotinia fuckeliana): ≥ 80% | inhibition of growth at 20 ppm (Glomerella lagenarium): ≥ 80% | control of Phaeosphaeria nodorum compared to untreated control (Phaeosphaeria nodorum): at least 80% | inhibition of growth at 20 ppm (Monographella nivalis): ≥ 80% | inhibition of growth at 20 ppm (Mycosphaerella arachidis): ≥ 80% | control of Pyrenophora teres compared to untreated control (Pyrenophora teres): at least 80% | inhibition of growth at 20 ppm [1]: ≥ 80%

Cn1cc(C2(C)CN(C(=O)c3nnn(-c4ccc(F)cc4F)n3)Cc3ccccc32)cn1 (stereo not shown) [Compound P-32, [2-(2,4-difluorophenyl)tetrazol-5-yl]-[4-methyl-4-(1-methylpyrazol-4-yl)-1,3-dihydroisoquinolin-2-yl]methanone]
inhibition of growth at 20 ppm [1]: ≥ 80%

COc1ccc2c(c1)C(c1cnn(C)c1)CN(C(=O)c1nnn(-c3ccccc3)n1)C2C (stereo not shown) [Compound P-35, [6-methoxy-1-methyl-4-(1-methylpyrazol-4-yl)-3,4-dihydro-1H-isoquinolin-2-yl]-(2-phenyltetrazol-5-yl)methanone]
inhibition of growth at 20 ppm (Botryotinia fuckeliana): ≥ 80% | inhibition of growth at 20 ppm (Glomerella lagenarium): ≥ 80% | inhibition of growth at 20 ppm (Monographella nivalis): ≥ 80% | inhibition of growth at 20 ppm (Mycosphaerella arachidis): ≥ 80% | control of Pyrenophora teres compared to untreated control (Pyrenophora teres): at least 80% | inhibition of growth at 20 ppm [1]: ≥ 80%

Cc1c([C@@H]2CN(C(=O)c3cn(-c4ncc(F)cc4F)nn3)[C@H](C)c3ccccc32)cnn1C [Compound P-44, [1-(3,5-difluoro-2-pyridyl)triazol-4-yl]-[(1R,4R)-4-(1,5-dimethylpyrazol-4-yl)-1-methyl-3,4-dihydro-1H-isoquinolin-2-yl]methanone]
inhibition of growth at 20 ppm (Glomerella lagenarium): ≥ 80% | inhibition of growth at 20 ppm (Mycosphaerella arachidis): ≥ 80% | inhibition of growth at 20 ppm [1]: ≥ 80%

C[C@H]1c2ccccc2[C@@H](c2cnn(C)c2Cl)CN1C(=O)c1cnn(-c2ccc(F)cc2F)n1 [Compound P-45, [(1S,4S)-4-(5-chloro-1-methyl-pyrazol-4-yl)-1-methyl-3,4-dihydro-1H-isoquinolin-2-yl]-[2-(2,4-difluorophenyl)triazol-4-yl]methanone]
inhibition of growth at 20 ppm [1]: ≥ 80%

C[C@@H]1c2ccccc2[C@H](c2cnn(C)c2Cl)CN1C(=O)c1cn(-c2ccc(F)cc2F)nn1 [Compound P-47, [(1R,4R)-4-(5-chloro-1-methyl-pyrazol-4-yl)-1-methyl-3,4-dihydro-1H-isoquinolin-2-yl]-[1-(2,4-difluorophenyl)triazol-4-yl]methanone]
inhibition of growth at 20 ppm (Mycosphaerella arachidis): ≥ 80% | inhibition of growth at 20 ppm [1]: ≥ 80%

C[C@@H]1c2ccccc2[C@H](c2cnn(C)c2Cl)CN1C(=O)c1nnn(-c2ccc(F)cc2F)n1 [Compound P-50, [(1R,4R)-4-(5-chloro-1-methyl-pyrazol-4-yl)-1-methyl-3,4-dihydro-1H-isoquinolin-2-yl]-[2-(2,4-difluorophenyl)tetrazol-5-yl]methanone]
inhibition of growth at 20 ppm [1]: ≥ 80%

Cc1c(C2CN(C(=O)c3cn(-c4ncc(F)cc4F)nn3)Cc3ccccc32)cnn1C (stereo not shown) [Compound P-57, [1-(3,5-difluoro-2-pyridyl)triazol-4-yl]-[4-(1,5-dimethylpyrazol-4-yl)-3,4-dihydro-1H-isoquinolin-2-yl]methanone]
control of Alternaria solani compared to untreated control (Alternaria solani): at least 80% | control of Phaeosphaeria nodorum compared to untreated control (Phaeosphaeria nodorum): at least 80% | control of Pyrenophora teres compared to untreated control (Pyrenophora teres): at least 80% | inhibition of growth at 20 ppm [1]: ≥ 80%
